Among the data in PMC6934184, “Selective DNA-PKcs inhibition extends the therapeutic index of localized radiotherapy and chemotherapy” (The Journal of Clinical Investigation, 2019) are inhibition values, retold here.

For this test, the target named is T1, CDC42 BPB (MRCKB) (Homo sapiens, UniProt Q9Y5S2).
T1 construct: purchased Thermo Fisher Scientific (Life Technologies) SelectScreen
Put plainly: SelectScreen Z'LYTE. The format is biochemical. An outline of the steps: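 NU5455 was profiled across the SelectScreen Broad panel of kinase activity and binding assays. Z'LYTE reactions such as CSF1R ran at apparent Km ATP, while the Adapta CAMK1 assay used ATP listed as 10. Values are given as percent.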

T1 sequence (Q9Y5S2 whole entry): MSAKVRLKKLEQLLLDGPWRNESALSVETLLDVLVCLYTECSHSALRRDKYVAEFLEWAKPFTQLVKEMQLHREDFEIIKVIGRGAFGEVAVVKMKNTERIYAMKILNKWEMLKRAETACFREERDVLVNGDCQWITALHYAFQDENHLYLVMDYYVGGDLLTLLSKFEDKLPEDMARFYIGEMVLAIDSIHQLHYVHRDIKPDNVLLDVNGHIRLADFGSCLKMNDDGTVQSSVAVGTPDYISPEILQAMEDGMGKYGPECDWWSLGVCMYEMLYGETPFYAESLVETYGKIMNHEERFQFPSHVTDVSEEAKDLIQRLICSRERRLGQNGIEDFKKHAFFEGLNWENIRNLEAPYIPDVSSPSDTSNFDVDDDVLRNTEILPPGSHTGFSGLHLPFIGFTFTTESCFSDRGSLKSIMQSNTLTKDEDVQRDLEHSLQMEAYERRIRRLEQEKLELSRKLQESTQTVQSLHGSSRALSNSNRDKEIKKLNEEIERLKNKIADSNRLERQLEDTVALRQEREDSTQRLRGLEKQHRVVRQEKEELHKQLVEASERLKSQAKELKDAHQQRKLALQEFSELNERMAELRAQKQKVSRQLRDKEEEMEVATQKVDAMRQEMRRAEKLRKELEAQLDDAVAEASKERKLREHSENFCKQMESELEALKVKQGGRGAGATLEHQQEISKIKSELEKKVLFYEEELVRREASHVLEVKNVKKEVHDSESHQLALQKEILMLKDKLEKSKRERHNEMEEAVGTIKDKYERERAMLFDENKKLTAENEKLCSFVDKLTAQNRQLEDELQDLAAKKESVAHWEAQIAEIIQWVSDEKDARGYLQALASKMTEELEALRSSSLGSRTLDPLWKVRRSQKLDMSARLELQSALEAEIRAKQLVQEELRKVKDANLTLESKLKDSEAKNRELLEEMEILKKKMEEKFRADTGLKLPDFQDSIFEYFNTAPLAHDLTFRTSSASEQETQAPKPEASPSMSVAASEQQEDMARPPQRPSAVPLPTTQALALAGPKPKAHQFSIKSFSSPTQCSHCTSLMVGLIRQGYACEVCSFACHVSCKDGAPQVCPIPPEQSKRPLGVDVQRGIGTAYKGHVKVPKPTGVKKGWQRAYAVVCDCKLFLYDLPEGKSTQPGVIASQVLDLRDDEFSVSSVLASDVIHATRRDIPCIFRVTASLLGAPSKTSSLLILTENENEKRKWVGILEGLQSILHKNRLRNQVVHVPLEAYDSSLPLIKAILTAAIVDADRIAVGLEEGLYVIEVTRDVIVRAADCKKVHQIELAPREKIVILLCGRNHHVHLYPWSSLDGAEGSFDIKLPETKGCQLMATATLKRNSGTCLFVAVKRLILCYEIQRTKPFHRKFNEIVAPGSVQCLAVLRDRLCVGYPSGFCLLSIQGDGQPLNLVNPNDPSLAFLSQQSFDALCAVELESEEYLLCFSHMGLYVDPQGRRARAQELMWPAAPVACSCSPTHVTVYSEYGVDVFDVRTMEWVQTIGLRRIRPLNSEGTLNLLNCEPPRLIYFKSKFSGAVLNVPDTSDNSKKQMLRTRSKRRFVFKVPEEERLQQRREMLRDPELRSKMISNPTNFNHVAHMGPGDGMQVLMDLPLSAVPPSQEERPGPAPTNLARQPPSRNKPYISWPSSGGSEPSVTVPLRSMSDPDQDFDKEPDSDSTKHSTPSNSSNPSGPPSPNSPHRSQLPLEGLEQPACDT

In the case of `CN(C(=O)CN1CCOCC1)c1ccc2sc3c(-c4cccc5c(=O)cc(N6CC7CCC(C6)O7)oc45)cccc3c2c1` [NU5455], the inhibition (as a rule, the relative decrease from the control value, in per cent) at 1 µM was -2.5%.
